Converted amounts (≈) assume the structure as drawn.
Columns and labels:
[1] = target: Escherichia coli LpxH (UDP-2,3-diacylglucosamine hydrolase) (Escherichia coli (strain K12), UniProt P43341); assay: 50% Inhibitory Concentration (IC50) to LpxH, UMP/CMP-Glo Glycosyltransferase Assay kit; type: biochemical
Experimental: Example 121: 50% Inhibitory Concentration (IC50) to UDP-2,3-diacylglucosamine hydrolase (LpxH)
The inhibitory potency of molecules to UDP-2,3-diacylglucosamine hydrolase (LpxH) was determined using the UMP/CMP-Glo™ Glycosyltransferase Assay kit. LpxH hydrolyzes the pyrophosphate bond of UDP-2,3-diacylglucosamine (UDP-DAG) to yield 2,3-diacylglucosamine 1-phosphate (lipid X) and UMP. The assay kit could quantify the UMP production by convert the UMP to ATP and generate light in a luciferase reaction. The compound's effect on the LpxH activity is detected by measuring the light using a luminometer (Envision).

E. coli (ATCC 25922) = assay: Minimal Inhibitory Concentration (MIC) assay, E. coli; type: cell-based; conditions: Escherichia coli, ATCC25922; E. coli ATCC 25922, CAMHB, 20 hours at 35° C.; read-out: MIC E. coli ATCC 25922
Summary of the method: (§1)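 Broth microdilution in cation-adjusted Mueller Hinton broth, inoculum 5×10^5 CFU/mL, compounds 2-fold serially diluted from 10 mM DMSO stocks. Plates incubated 20 hours at 35° C in ambient air; MIC (μg/mL) is the lowest concentration preventing visible growth.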

[2] = system: K. pneumonia (ATCC 43816); assay: Minimal Inhibitory Concentration (MIC) assay, K. pneumonia; type: cell-based; conditions: Klebsiella pneumoniae; K. pneumoniae ATCC43816, CAMHB, 20 hours at 35° C.; read-out: MIC K. pneumoniae ATCC43816
Summary of the method: as §1

Escherichia coli LpxH (UDP-2,3-diacylglucosamine hydrolase), sequence (P43341 whole entry): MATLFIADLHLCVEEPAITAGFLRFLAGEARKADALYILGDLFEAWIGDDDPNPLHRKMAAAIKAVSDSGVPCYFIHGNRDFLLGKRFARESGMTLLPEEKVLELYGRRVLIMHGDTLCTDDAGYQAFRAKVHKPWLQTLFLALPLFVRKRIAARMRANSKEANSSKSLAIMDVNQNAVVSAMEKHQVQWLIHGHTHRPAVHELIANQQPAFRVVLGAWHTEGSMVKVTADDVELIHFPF

NCCN1CCC2(CC1)CN(c1ccc(S(=O)(=O)N3CCN(c4cc(C(F)(F)F)cc(Cl)n4)CC3)cc1)C(=O)O2 [Example 24, 8-(2-Aminoethyl)-3-[4-[4-[6-chloro-4-(trifluoromethyl)-2-pyridyl]piperazin-1-yl]sulfonylphenyl]-1-oxa-3,8-diazaspiro[4.5]decan-2-one]
IC50 [1]: 14.9 nM
MIC (E. coli (ATCC 25922)): 2.24 µg/mL (≈ 3.71 µM)
MIC [2]: 2.24 µg/mL (≈ 3.71 µM)

NCCN1CCC[C@H]2OC(=O)N(c3ccc(S(=O)(=O)N4CCN(c5cc(C(F)(F)F)cc(Cl)n5)CC4)cc3)[C@H]2C1 [Example 25, (3aS,8aR)-5-(2-aminoethyl)-3-[4-[4-[6-chloro-4-(trifluoromethyl)-2-pyridyl]piperazin-1-yl]sulfonylphenyl]-3a,4,6,7,8,8a-hexahydrooxazolo[4,5-c]azepin-2-one]
IC50 [1]: 24.9 nM
MIC (E. coli (ATCC 25922)): 2.6 µg/mL (≈ 4.31 µM)
MIC [2]: 2.6 µg/mL (≈ 4.31 µM)

CNCCN1CCC[C@H]2OC(=O)N(c3ccc(S(=O)(=O)N4CCN(c5cc(C(F)(F)F)cc(Cl)n5)CC4)cc3)[C@H]2C1 [Example 26, (3aS,8aR)-3-[4-[4-[6-chloro-4-(trifluoromethyl)-2-pyridyl]piperazin-1-yl]sulfonylphenyl]-5-[2-(methylamino)ethyl]-3a,4,6,7,8,8a-hexahydrooxazolo[4,5-c]azepin-2-one]
IC50 [1]: 32.4 nM
MIC (E. coli (ATCC 25922)): 2.64 µg/mL (≈ 4.28 µM)
MIC [2]: 5.28 µg/mL (≈ 8.56 µM)

CNCC1CN(c2ccc(S(=O)(=O)N3CCN(c4cc(C(F)(F)F)cc(Cl)n4)CC3)cc2)C(=O)O1 (stereo not drawn) [Example 27, 3-[4-[4-[6-Chloro-4-(trifluoromethyl)-2-pyridyl]piperazin-1-yl]sulfonylphenyl]-5-(methylaminomethyl)oxazolidin-2-one]
IC50 [1]: 22.5 nM
MIC (E. coli (ATCC 25922)): 1.78 µg/mL (≈ 3.33 µM)
MIC [2]: 3.57 µg/mL (≈ 6.69 µM)

CN(C)CC1CN(c2ccc(S(=O)(=O)N3CCN(c4cc(C(F)(F)F)cc(Cl)n4)CC3)cc2)C(=O)O1 (stereo not drawn) [Example 28, 3-[4-[4-[6-Chloro-4-(trifluoromethyl)-2-pyridyl]piperazin-1-yl]sulfonylphenyl]-5-[(dimethylamino)methyl]oxazolidin-2-one]
IC50 [1]: 12.8 nM
MIC (E. coli (ATCC 25922)): 1.83 µg/mL (≈ 3.34 µM)
MIC [2]: 1.83 µg/mL (≈ 3.34 µM)

O=C1OC(CN2CCNCC2)CN1c1ccc(S(=O)(=O)N2CCN(c3cc(C(F)(F)F)cc(Cl)n3)CC2)cc1 (stereo not drawn) [Example 29, 3-[4-[4-[6-Chloro-4-(trifluoromethyl)-2-pyridyl]piperazin-1-yl]sulfonylphenyl]-5-(piperazin-1-ylmethyl)oxazolidin-2-one]
IC50 [1]: 25.5 nM
MIC (E. coli (ATCC 25922)): 1.96 µg/mL (≈ 3.33 µM)
MIC [2]: 1.96 µg/mL (≈ 3.33 µM)

O=C1OC(CN2C[C@@H](O)[C@@H](O)C2)CN1c1ccc(S(=O)(=O)N2CCN(c3cc(C(F)(F)F)cc(Cl)n3)CC2)cc1 (stereo partly drawn) [Example 30, 3-[4-[4-[6-Chloro-4-(trifluoromethyl)-2-pyridyl]piperazin-1-yl]sulfonylphenyl]-5-[[cis-3,4-dihydroxypyrrolidin-1-yl]methyl]oxazolidin-2-one]
IC50 [1]: 14.9 nM
MIC (E. coli (ATCC 25922)): 2.01 µg/mL (≈ 3.32 µM)
MIC [2]: 4.02 µg/mL (≈ 6.63 µM)

NC1CN(CC2CN(c3ccc(S(=O)(=O)N4CCN(c5cc(C(F)(F)F)cc(Cl)n5)CC4)cc3)C(=O)O2)C1 (stereo not drawn) [Example 31, 5-[(3-Aminoazetidin-1-yl)methyl]-3-[4-[4-[6-chloro-4-(trifluoromethyl)-2-pyridyl]piperazin-1-yl]sulfonylphenyl]oxazolidin-2-one]
IC50 [1]: 6.96 nM
MIC (E. coli (ATCC 25922)): 2.15 µg/mL (≈ 3.74 µM)
MIC [2]: 4.31 µg/mL (≈ 7.5 µM)

O=C1OC(CN2CC3(CNC3)C2)CN1c1ccc(S(=O)(=O)N2CCN(c3cc(C(F)(F)F)cc(Cl)n3)CC2)cc1 (stereo not drawn) [Example 32, 3-[4-[4-[6-Chloro-4-(trifluoromethyl)-2-pyridyl]piperazin-1-yl]sulfonylphenyl]-5-(2,6-diazaspiro[3.3]heptan-2-ylmethyl)oxazolidin-2-one]
IC50 [1]: 25 nM
MIC (E. coli (ATCC 25922)): 8.94 µg/mL (≈ 14.9 µM)
MIC [2]: 8.94 µg/mL (≈ 14.9 µM)

NCC1CN(CC2CN(c3ccc(S(=O)(=O)N4CCN(c5cc(C(F)(F)F)cc(Cl)n5)CC4)cc3)C(=O)O2)C1 (stereo not drawn) [Example 33, 5-[[3-(Aminomethyl)azetidin-1-yl]methyl]-3-[4-[4-[6-chloro-4-(trifluoromethyl)-2-pyridyl]piperazin-1-yl]sulfonylphenyl]oxazolidin-2-one]
IC50 [1]: 15.3 nM
MIC (E. coli (ATCC 25922)): 1.1 µg/mL (≈ 1.87 µM)
MIC [2]: 2.2 µg/mL (≈ 3.73 µM)

O=C1OC(CNC2CCNC2)CN1c1ccc(S(=O)(=O)N2CCN(c3cc(C(F)(F)F)cc(Cl)n3)CC2)cc1 (stereo not drawn) [Example 34, 3-[4-[4-[6-Chloro-4-(trifluoromethyl)-2-pyridyl]piperazin-1-yl]sulfonylphenyl]-5-[(pyrrolidin-3-ylamino)methyl]oxazolidin-2-one]
IC50 [1]: 27.2 nM
MIC (E. coli (ATCC 25922)): 4.39 µg/mL (≈ 7.45 µM)
MIC [2]: 4.39 µg/mL (≈ 7.45 µM)

NCC1CN(CC2CC(=O)N(c3ccc(S(=O)(=O)N4CCN(c5cc(C(F)(F)F)cc(Cl)n5)CC4)cc3)C2)C1 (stereo not drawn) [Example 35, 4-[[3-(Aminomethyl)azetidin-1-yl]methyl]-1-[4-[4-[6-chloro-4-(trifluoromethyl)-2-pyridyl]piperazin-1-yl]sulfonylphenyl]pyrrolidin-2-one]
IC50 [1]: < 3.41 nM
MIC (E. coli (ATCC 25922)): 0.64 µg/mL (≈ 1.09 µM)
MIC [2]: 1.27 µg/mL (≈ 2.16 µM)

CN1CCN(CC2CC(=O)N(c3ccc(S(=O)(=O)N4CCN(c5cc(C(F)(F)F)cc(Cl)n5)CC4)cc3)C2)CC1 (stereo not drawn) [Example 36, 1-[4-[4-[6-Chloro-4-(trifluoromethyl)-2-pyridyl]piperazin-1-yl]sulfonylphenyl]-4-[(4-methylpiperazin-1-yl)methyl]pyrrolidin-2-one]
IC50 [1]: 26.6 nM
MIC (E. coli (ATCC 25922)): 1.88 µg/mL (≈ 3.13 µM)
MIC [2]: 3.76 µg/mL (≈ 6.26 µM)

CN(C)CC1CN(CC2CC(=O)N(c3ccc(S(=O)(=O)N4CCN(c5cc(C(F)(F)F)cc(Cl)n5)CC4)cc3)C2)C1 (stereo not drawn) [Example 37, 1-[4-[4-[6-Chloro-4-(trifluoromethyl)-2-pyridyl]piperazin-1-yl]sulfonylphenyl]-4-[[3-[(dimethylamino)methyl]azetidin-1-yl]methyl]pyrrolidin-2-one]
IC50 [1]: 48.8 nM
MIC (E. coli (ATCC 25922)): 2.64 µg/mL (≈ 4.29 µM)
MIC [2]: 5.27 µg/mL (≈ 8.57 µM)

O=C1CC(CNCC2CNC2)CN1c1ccc(S(=O)(=O)N2CCN(c3cc(C(F)(F)F)cc(Cl)n3)CC2)cc1 (stereo not drawn) [Example 38, 4-[(Azetidin-3-ylmethylamino)methyl]-1-[4-[4-[6-chloro-4-(trifluoromethyl)-2-pyridyl]piperazin-1-yl]sulfonylphenyl]pyrrolidin-2-one]
IC50 [1]: 47.7 nM
MIC (E. coli (ATCC 25922)): 5.09 µg/mL (≈ 8.67 µM)
MIC [2]: 5.09 µg/mL (≈ 8.67 µM)

NC1(C2CN(CC3CC(=O)N(c4ccc(S(=O)(=O)N5CCN(c6cc(C(F)(F)F)cc(Cl)n6)CC5)cc4)C3)C2)CC1 (stereo not drawn) [Example 39, 4-[[3-(1-Aminocyclopropyl)azetidin-1-yl]methyl]-1-[4-[4-[6-chloro-4-(trifluoromethyl)-2-pyridyl]piperazin-1-yl]sulfonylphenyl]pyrrolidin-2-one]
IC50 [1]: 13 nM
MIC (E. coli (ATCC 25922)): 0.96 µg/mL (≈ 1.57 µM)
MIC [2]: 1.92 µg/mL (≈ 3.13 µM)

NC1CN(CC2CC(=O)N(c3ccc(S(=O)(=O)N4CCN(c5cc(C(F)(F)F)cc(Cl)n5)CC4)cc3)C2)C1 (stereo not drawn) [Example 40, 4-[(3-Aminoazetidin-1-yl)methyl]-1-[4-[4-[6-chloro-4-(trifluoromethyl)-2-pyridyl]piperazin-1-yl]sulfonylphenyl]pyrrolidin-2-one]
IC50 [1]: 20.9 nM
MIC (E. coli (ATCC 25922)): 1.79 µg/mL (≈ 3.12 µM)
MIC [2]: 1.79 µg/mL (≈ 3.12 µM)

O=C1CC(CN2CCNCC2)CN1c1ccc(S(=O)(=O)N2CCN(c3cc(C(F)(F)F)cc(Cl)n3)CC2)cc1 (stereo not drawn) [Example 41, 1-[4-[4-[6-Chloro-4-(trifluoromethyl)-2-pyridyl]piperazin-1-yl]sulfonylphenyl]-4-(piperazin-1-ylmethyl)pyrrolidin-2-one]
IC50 [1]: 10.2 nM
MIC (E. coli (ATCC 25922)): 1.27 µg/mL (≈ 2.16 µM)
MIC [2]: 2.55 µg/mL (≈ 4.34 µM)

CN(C)C1CN(CC2CC(=O)N(c3ccc(S(=O)(=O)N4CCN(c5cc(C(F)(F)F)cc(Cl)n5)CC4)cc3)C2)C1 (stereo not drawn) [Example 42, 1-[4-[4-[6-Chloro-4-(trifluoromethyl)-2-pyridyl]piperazin-1-yl]sulfonylphenyl]-4-[[3-(dimethylamino)azetidin-1-yl]methyl]pyrrolidin-2-one]
IC50 [1]: 15 nM
MIC (E. coli (ATCC 25922)): 10.4 µg/mL (≈ 17.2 µM)
MIC [2]: 10.4 µg/mL (≈ 17.2 µM)

CNC1CN(CC2CC(=O)N(c3ccc(S(=O)(=O)N4CCN(c5cc(C(F)(F)F)cc(Cl)n5)CC4)cc3)C2)C1 (stereo not drawn) [Example 43, 1-[4-[4-[6-Chloro-4-(trifluoromethyl)-2-pyridyl]piperazin-1-yl]sulfonylphenyl]-4-[[3-(methylamino)azetidin-1-yl]methyl]pyrrolidin-2-one]
IC50 [1]: 15.3 nM
MIC (E. coli (ATCC 25922)): 3.82 µg/mL (≈ 6.51 µM)
MIC [2]: 5.09 µg/mL (≈ 8.67 µM)

CNC1CC(=O)N(c2ccc(S(=O)(=O)N3CCN(c4cc(C(F)(F)F)cc(Cl)n4)CC3)cc2)C1 (stereo not drawn) [Example 44, 1-[4-[4-[6-chloro-4-(trifluoromethyl)-2-pyridyl]piperazin-1-yl]sulfonylphenyl]-4-(methylamino)pyrrolidin-2-one]
IC50 [1]: 197 nM
MIC (E. coli (ATCC 25922)): 1.73 µg/mL (≈ 3.34 µM)
MIC [2]: 3.47 µg/mL (≈ 6.7 µM)

NCCNC1CC(=O)N(c2ccc(S(=O)(=O)N3CCN(c4cc(C(F)(F)F)cc(Cl)n4)CC3)cc2)C1 (stereo not drawn) [Example 45, 4-(2-Aminoethylamino)-1-[4-[4-[6-chloro-4-(trifluoromethyl)-2-pyridyl]piperazin-1-yl]sulfonylphenyl]pyrrolidin-2-one]
IC50 [1]: 45.7 nM
MIC (E. coli (ATCC 25922)): 3.65 µg/mL (≈ 6.67 µM)
MIC [2]: 7.29 µg/mL (≈ 13.3 µM)
